In ChEMBL document CHEMBL3826966, “A chromatography-free isolation of rohitukine from leaves of Dysoxylum binectariferum: Evaluation for in vitro cytotoxicity, Cdk inhibition and physicochemical properties” (Bioorg Med Chem Lett, 2016):
≈ marks a conversion by molar mass, not a printed value.

Assays:
[1] = target: Mitogen-activated protein kinase 12 (Homo sapiens) (UniProt P53778); assay: Inhibition of human p38gamma MAPK (1 to 367 residues) assessed as remaining enzyme activity at 50 uM after 30 mins by 33P-ATP filter-binding assay
[2] = target: Dual specificity tyrosine-phosphorylation-regulated kinase 1A (Homo sapiens) (UniProt Q13627); assay: Inhibition of human DYRK1A (1 to 502 residues) assessed as remaining enzyme activity at 50 uM after 30 mins by 33P-ATP filter-binding assay
[3] = target: Interleukin-1 receptor-associated kinase 4 (Homo sapiens) (UniProt Q9NWZ3); assay: Inhibition of human IRAK4 (14 to 460 residues) assessed as remaining enzyme activity at 50 uM after 30 mins by 33P-ATP filter-binding assay
[4] = target: Serine/threonine-protein kinase pim-2 (Homo sapiens) (UniProt Q9P1W9); assay: Inhibition of human PIM2 (2 to 334 residues) assessed as remaining enzyme activity at 50 uM after 30 mins by 33P-ATP filter-binding assay
[5] = Ionization constant, pKa of the compound in buffer at pH 1 to 13 by uV spectrophotometry; format: physicochemical
[6] = Cytotoxicity against human MOLT4 cells assessed as cell growth inhibition after 48 hrs by MTT assay; format: functional; settings: MOLT-4, 48 h
[7] = target: Serine/threonine-protein kinase PAK 4 (Homo sapiens) (UniProt O96013); assay: Inhibition of human PAK4 (2 to 591 residues) assessed as remaining enzyme activity at 50 uM after 30 mins by 33P-ATP filter-binding assay
[8] = Cytotoxicity against human SF539 cells assessed as cell growth inhibition after 48 hrs by MTT assay; format: functional; settings: SF-539, 48 h
[9] = target: Serine/threonine-protein kinase D1 (Homo sapiens) (UniProt Q15139); assay: Inhibition of human PKD1 (2 to 912 residues) assessed as remaining enzyme activity at 50 uM after 30 mins by 33P-ATP filter-binding assay
CDK2/Cyclin A2 = CDK2/Cyclin A2 (Homo sapiens, UniProt P24941); assay: Inhibition of human Cdk2/cyclin A using histone H1 substrate after 30 mins by 33P-ATP filter-binding assay; format: protein-complex assay
[10] = Cytotoxicity against human SF295 cells assessed as cell growth inhibition after 48 hrs by MTT assay; format: functional; settings: SF-295, 48 h
[11] = target: Serine/threonine-protein kinase 33 (Homo sapiens) (UniProt Q9BYT3); assay: Inhibition of human STK33 (1 to 514 residues) assessed as remaining enzyme activity at 50 uM after 30 mins by 33P-ATP filter-binding assay
[12] = Thermodynamic equilibrium solubility in stimulated intestinal fluid at 120 ug/ml at pH 6.8 by HPLC analysis; format: ADME; settings: simulated intestinal fluid, read-out: Therm_solubility
[13] = target: Tyrosine-protein kinase ABL1 (Homo sapiens) (UniProt P00519); assay: Inhibition of human ABL (118 to 535 residues) assessed as remaining enzyme activity at 50 uM after 30 mins by 33P-ATP filter-binding assay
[14] = target: Ephrin type-B receptor 2 (Homo sapiens) (UniProt P29323); assay: Inhibition of human EPHB2 (560 to 987 residues) assessed as remaining enzyme activity at 50 uM after 30 mins by 33P-ATP filter-binding assay
[15] = target: Glycogen synthase kinase-3 beta (Homo sapiens) (UniProt P49841); assay: Inhibition of human GSK3beta (2 to 420 residues) assessed as remaining enzyme activity at 50 uM after 30 mins by 33P-ATP filter-binding assay
[16] = target: Serine/threonine-protein kinase Sgk1 (Homo sapiens) (UniProt O00141); assay: Inhibition of human SGK1 assessed as remaining enzyme activity at 50 uM after 30 mins by 33P-ATP filter-binding assay
HL-60 = assay: Induction of apoptosis in human HL60 cells assessed as apoptotic cells at 10 uM (reference value: 1 %); format: functional
[17] = target: Insulin receptor-related protein (Homo sapiens) (UniProt P14616); assay: Inhibition of human IRR (944 to 1236 residues) assessed as remaining enzyme activity at 50 uM after 30 mins by 33P-ATP filter-binding assay
K562 = assay: Cytotoxicity against human K562 cells assessed as cell growth inhibition after 48 hrs by MTT assay; format: functional; settings: K562, 48 h
[18] = target: Serine/threonine-protein kinase pim-1 (Homo sapiens) (UniProt P11309); assay: Inhibition of human PIM1 (2 to 313 residues) assessed as remaining enzyme activity at 50 uM after 30 mins by 33P-ATP filter-binding assay
[19] = target: Discoidin domain-containing receptor 2 (Homo sapiens) (UniProt Q16832); assay: Inhibition of human DDR2 (467 to 854 residues) assessed as remaining enzyme activity at 50 uM after 30 mins by 33P-ATP filter-binding assay
[20] = Stability in SIF solution assessed as reduction in compound AUC at 120 ug/ml after 8 hrs by RP-HPLC analysis; format: physicochemical; settings: read-out: Drug degradation
[21] = target: CDK2/Cyclin A2 (Homo sapiens) (UniProt P24941+P20248); assay: Inhibition of human Cdk2/cyclin A at 0.5 uM using Histone H1 substrate after 30 mins by 33P-ATP filter-binding assay; format: protein-complex assay
[22] = Partition coefficient, logP of the compound in water/PBS buffer at 25 degC by OECD guidelines based method; format: physicochemical; settings: water/PBS buffer; read-out: logP
[23] = target: Ribosomal protein S6 kinase alpha-1 (Homo sapiens) (UniProt Q15418); assay: Inhibition of human RSK1 (1 to 735 residues) assessed as remaining enzyme activity at 50 uM after 30 mins by 33P-ATP filter-binding assay
Homo sapiens = species: Homo sapiens; assay: Inhibition of human PKA assessed as remaining enzyme activity at 50 uM after 30 mins by 33P-ATP filter-binding assay
[24] = target: NUAK family SNF1-like kinase 1 (Homo sapiens) (UniProt O60285); assay: Inhibition of human NUAK1 (2 to 660 residues) assessed as remaining enzyme activity at 50 uM after 30 mins by 33P-ATP filter-binding assay
[25] = Thermodynamic equilibrium solubility in water at 120 ug/ml by HPLC analysis; format: physicochemical; settings: read-out: Therm_solubility
[26] = target: Serine/threonine-protein kinase 24 (Homo sapiens) (UniProt Q9Y6E0); assay: Inhibition of human MST3 (2 to 431 residues) assessed as remaining enzyme activity at 50 uM after 30 mins by 33P-ATP filter-binding assay
[27] = target: Serine/threonine-protein kinase TBK1 (Homo sapiens) (UniProt Q9UHD2); assay: Inhibition of human TBK1 (1 to 729 residues) assessed as remaining enzyme activity at 50 uM after 30 mins by 33P-ATP filter-binding assay
[28] = target: Dual specificity mitogen-activated protein kinase kinase 6 (Homo sapiens) (UniProt P52564); assay: Inhibition of human MKK6 (2 to 334 residues) assessed as remaining enzyme activity at 50 uM after 30 mins by 33P-ATP filter-binding assay

Question: Which Activity [1] does the source give for `Cc1cc(=O)c2c(O)cc(O)c([C@H]3CCN(C)C[C@H]3O)c2o1` [ROHITUKINE] here?
Answer: 27%

Question: What about the Activity [2] of the same compound?
Answer: 27%

Question: And the Activity [3]?
Answer: 75%

Question: What about the Activity [4] of the same compound?
Answer: 67%

Question: And the pKa [5]?
Answer: 5.83

Question: And the GI50 [6]?
Answer: 12 µM

Question: And the Activity [7]?
Answer: 83%

Question: And the GI50 [8]?
Answer: 30 µM

Question: What about the Activity [9] of the same compound?
Answer: 75%

Question: And the IC50 (CDK2/Cyclin A2)?
Answer: 7.3 µM

Question: What about the GI50 [10] of the same compound?
Answer: 27 µM

Question: What about the Activity [11] of the same compound?
Answer: 54%

Question: And the solubility thermodynamic [12]?
Answer: 18.9 mg/mL (≈ 61.9 mM)

Question: What about the Activity [13] of the same compound?
Answer: 87%

Question: And the Activity [14]?
Answer: 81%

Question: And the Activity [15]?
Answer: 66%

Question: And the Activity [16]?
Answer: 92%

Question: And the Activity (HL-60)?
Answer: 10%

Question: What about the Activity [17] of the same compound?
Answer: 53%

Question: What about the GI50 (K562) of the same compound?
Answer: 24 µM

Question: What about the Activity [18] of the same compound?
Answer: 27%

Question: What about the Activity [19] of the same compound?
Answer: 79%

Question: And the degraded at 8 h, 120 ug/ml [20]?
Answer: 2.42%

Question: And the inhibition [21]?
Answer: 10%

Question: What about the logP [22] of the same compound?
Answer: 0.73

Question: And the Activity [23]?
Answer: 31%

Question: What about the Activity (Homo sapiens) of the same compound?
Answer: 88%

Question: And the Activity [24]?
Answer: 52%

Question: What about the solubility thermodynamic [25] of the same compound?
Answer: 10.2 mg/mL (≈ 33.6 mM)

Question: And the Activity [26]?
Answer: 85%

Question: And the Activity [27]?
Answer: 55%

Question: What about the Activity [28] of the same compound?
Answer: 89%
